Test [1] addresses Carbonic anhydrase 12 (Homo sapiens, UniProt O43570).
Description: Inhibition of human carbonic anhydrase-12 by stopped flow CO2 hydrase assay
In test [2] the target is Carbonic anhydrase 9 (Homo sapiens, UniProt Q16790). Put plainly: Inhibition of human carbonic anhydrase-9 by stopped flow CO2 hydrase assay.

Each structure is given as a SMILES string.

Chain of Carbonic anhydrase 12 (O43570 whole entry): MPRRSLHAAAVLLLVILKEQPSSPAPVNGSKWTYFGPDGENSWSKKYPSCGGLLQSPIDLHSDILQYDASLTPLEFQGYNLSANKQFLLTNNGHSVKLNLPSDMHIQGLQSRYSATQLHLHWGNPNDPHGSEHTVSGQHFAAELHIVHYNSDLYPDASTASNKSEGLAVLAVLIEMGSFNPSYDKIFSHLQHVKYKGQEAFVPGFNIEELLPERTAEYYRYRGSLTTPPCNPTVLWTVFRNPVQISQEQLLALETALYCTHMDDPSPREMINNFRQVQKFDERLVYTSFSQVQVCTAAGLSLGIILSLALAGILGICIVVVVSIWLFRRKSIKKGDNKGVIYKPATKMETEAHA

In the case of `NS(=O)(=O)c1ccc(NC(=O)Cc2ccccc2)cc1`, the results for the Ki in test [1] and in test [2] were 0.071 µM and 0.084 µM, respectively.

As to `NS(=O)(=O)c1ccc(NC(=O)Cc2cccs2)cc1`, the results for the inhibition constant (Ki) in test [1] and in test [2] were 0.021 µM and 0.019 µM, respectively.

Turning to `CCC[C@H](C(=O)Nc1ccc(S(N)(=O)=O)cc1)C(C)(C)C`, the Ki in test [1] worked out at 0.078 µM; in test [2], 0.096 µM.

For the origin of these results see ChEMBL document CHEMBL2429841, “Effect of incorporating a thiophene tail in the scaffold of acetazolamide on the inhibition of human carbonic anhydrase isoforms I, II, IX and XII” (Bioorg Med Chem Lett, 2013).
